{
  "source": "BindingDB's records for doi:10.7270/Q2805129",
  "about": "(Vanderbilt Screening Center For Gpcrs, Ion Channels and …, 2009)",
  "molecular_target": "T1, Muscarinic acetylcholine receptor M5 (Homo sapiens, UniProt P08912)",
  "T1 sequence (P08912 whole entry)": "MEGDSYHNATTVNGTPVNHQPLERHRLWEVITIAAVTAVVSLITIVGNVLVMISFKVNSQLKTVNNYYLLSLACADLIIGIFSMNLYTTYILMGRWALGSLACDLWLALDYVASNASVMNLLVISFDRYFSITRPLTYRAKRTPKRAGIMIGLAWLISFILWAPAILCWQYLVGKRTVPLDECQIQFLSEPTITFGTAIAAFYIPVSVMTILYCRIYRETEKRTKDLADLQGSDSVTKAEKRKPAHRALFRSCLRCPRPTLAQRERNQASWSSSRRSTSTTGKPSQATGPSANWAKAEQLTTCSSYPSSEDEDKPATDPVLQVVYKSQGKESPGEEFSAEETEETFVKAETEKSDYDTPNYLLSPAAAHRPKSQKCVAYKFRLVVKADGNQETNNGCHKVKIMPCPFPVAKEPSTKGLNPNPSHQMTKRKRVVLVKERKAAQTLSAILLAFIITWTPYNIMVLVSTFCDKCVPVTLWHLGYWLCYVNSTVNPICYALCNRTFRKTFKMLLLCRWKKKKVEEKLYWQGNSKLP",
  "experiment": "compound effect on ACh competition at M5, biochemical, [3H]N-methylscopolamine, acetylcholine (AID 2194)",
  "data": [
    {"smiles": "COc1ccc(CN2C(=O)C(=O)c3cc(OC(F)(F)F)ccc32)cc1", "note": "[VU0238429]", "values": [
      {"measurement": "Ki", "result": 159, "unit": "nM"}
    ]}
  ]
}
